Like-named read-outs stand apart in the source and are kept apart here.
Legend:
[1] = system: cellular α-N-terminal methylation level in HCT116 cells; assay: Cellular N-terminal methylation level, Western blot with anti-me3-SPK antibody; assay type: cell-based; conditions: Homo sapiens, HCT-116, cellular N-terminal methylation inhibition, n = 2
Procedure: Next, we investigated the effects of all peptidomimetic inhibitors with GI50 > 100 µM and IC50 < 1 µM on the cellular α-N-terminal methylation level in HCT116 cells (Table 2). Then, we examined the top three cell-potent peptidomimetic inhibitors 1d–f on the dose-response of inhibition of cellular N-terminal methylation levels. […] As the biochemical IC50 value of GD562 was about three-fold higher than DC541, we proposed that the improved cellular inhibition of GD562 may be attributed to its increased permeability with higher cLogP than DC541.
Figure 5 Inhibition of cellular N-terminal methylation by peptidomimetic inhibitors in HCT116 cells. Representative Western blot results of the effects of GD562 (A), GD564 (B), and GD573 (C) on the cellular methylation level. Image quantification was performed using ImageJ software (NIH). […] All experiments were performed in duplicate (n = 2). […]
Cellular N-methylation level.
The gel was transferred to a
system. Image quantification was done using ImageJ software (NIH). All bands were compared
OrganicsTM, AC418900050) dissolved in sterile 1 x PBS. […]

me3-RCC1 [2] = assay: Cellular me3-RCC1 level in HCT116 cells; assay type: cell-based, human
me3-SET [3] = assay: Cellular me3-SET level in HCT116 cells; assay type: cell-based, human
G9a = target: T1, G9a (Homo sapiens, UniProt Q96KQ7); assay: In-house selectivity study, fluorescence assay: G9a; assay type: biochemical; conditions: read-out: inhibition of enzyme activity
T1 sequence (Q96KQ7 1-1210): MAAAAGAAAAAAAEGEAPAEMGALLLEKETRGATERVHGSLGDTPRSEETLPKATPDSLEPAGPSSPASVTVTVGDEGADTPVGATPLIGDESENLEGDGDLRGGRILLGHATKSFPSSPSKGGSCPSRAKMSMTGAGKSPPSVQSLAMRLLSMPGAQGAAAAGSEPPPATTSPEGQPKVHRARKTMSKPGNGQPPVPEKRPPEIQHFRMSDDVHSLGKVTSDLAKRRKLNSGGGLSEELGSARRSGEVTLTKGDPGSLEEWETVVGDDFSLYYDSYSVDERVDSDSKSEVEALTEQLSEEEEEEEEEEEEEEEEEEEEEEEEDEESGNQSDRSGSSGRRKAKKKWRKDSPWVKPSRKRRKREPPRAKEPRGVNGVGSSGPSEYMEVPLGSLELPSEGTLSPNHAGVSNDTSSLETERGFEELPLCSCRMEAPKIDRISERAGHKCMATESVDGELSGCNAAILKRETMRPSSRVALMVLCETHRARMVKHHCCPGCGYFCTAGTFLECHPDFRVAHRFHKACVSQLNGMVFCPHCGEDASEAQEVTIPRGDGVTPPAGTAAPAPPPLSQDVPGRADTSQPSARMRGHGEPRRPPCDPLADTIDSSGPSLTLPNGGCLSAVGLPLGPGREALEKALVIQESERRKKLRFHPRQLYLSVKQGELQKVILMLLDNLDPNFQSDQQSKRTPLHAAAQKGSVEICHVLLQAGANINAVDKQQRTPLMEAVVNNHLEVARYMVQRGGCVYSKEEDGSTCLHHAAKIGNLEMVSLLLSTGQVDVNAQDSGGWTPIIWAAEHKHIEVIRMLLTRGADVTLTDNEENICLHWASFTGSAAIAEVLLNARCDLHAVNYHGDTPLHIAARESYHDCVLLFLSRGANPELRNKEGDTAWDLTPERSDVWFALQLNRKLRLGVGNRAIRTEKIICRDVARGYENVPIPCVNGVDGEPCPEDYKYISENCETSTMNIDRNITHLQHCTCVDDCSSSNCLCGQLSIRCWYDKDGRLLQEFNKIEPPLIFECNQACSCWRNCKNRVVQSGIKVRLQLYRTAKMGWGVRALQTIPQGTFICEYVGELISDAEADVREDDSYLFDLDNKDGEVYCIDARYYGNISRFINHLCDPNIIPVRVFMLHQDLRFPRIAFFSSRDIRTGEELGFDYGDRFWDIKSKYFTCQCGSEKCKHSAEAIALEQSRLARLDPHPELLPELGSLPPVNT

SETD7 = target: T2, SETD7 (Homo sapiens, UniProt Q8WTS6); assay: In-house selectivity study, fluorescence assay: SETD7; assay type: biochemical; conditions: read-out: inhibition of enzyme activity
T2 construct: made in house
T2 sequence (Q8WTS6 1-366): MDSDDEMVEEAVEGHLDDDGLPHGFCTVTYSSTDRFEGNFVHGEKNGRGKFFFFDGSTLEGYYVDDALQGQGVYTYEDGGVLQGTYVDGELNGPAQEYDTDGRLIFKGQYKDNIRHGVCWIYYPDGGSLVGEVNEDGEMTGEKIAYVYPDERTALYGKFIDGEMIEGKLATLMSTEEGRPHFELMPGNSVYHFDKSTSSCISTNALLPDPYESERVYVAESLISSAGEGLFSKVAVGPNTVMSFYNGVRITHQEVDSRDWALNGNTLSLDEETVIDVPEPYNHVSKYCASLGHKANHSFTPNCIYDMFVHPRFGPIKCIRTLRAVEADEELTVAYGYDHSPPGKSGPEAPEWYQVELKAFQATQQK

PRMT1 = target: T3, PRMT1 (Homo sapiens, UniProt Q99873); assay: In-house selectivity study, fluorescence assay: PRMT1; assay type: biochemical; conditions: read-out: inhibition of enzyme activity
T3 construct: made in house

NNMT = target: T4, NNMT (Homo sapiens, UniProt P40261); assay: In-house selectivity study, fluorescence assay: NNMT; assay type: biochemical; conditions: read-out: inhibition of enzyme activity
T4 construct: made in house
T4 sequence (P40261 1-264): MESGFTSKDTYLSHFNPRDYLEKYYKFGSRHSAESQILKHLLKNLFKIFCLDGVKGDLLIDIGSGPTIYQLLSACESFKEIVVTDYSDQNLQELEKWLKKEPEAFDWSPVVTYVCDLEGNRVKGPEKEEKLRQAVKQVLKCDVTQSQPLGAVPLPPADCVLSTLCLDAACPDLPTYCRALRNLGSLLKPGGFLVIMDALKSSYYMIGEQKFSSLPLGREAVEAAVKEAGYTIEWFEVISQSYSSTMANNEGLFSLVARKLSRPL

TbPRMT7 = TbPRMT7 (Trypanosoma brucei brucei, UniProt Q582G4); assay: biochemical; conditions: read-out: inhibition of enzyme activity
SAHH = SAHH (Homo sapiens, UniProt P23526); assay: In-house selectivity study, fluorescence assay: coupling enzyme SAHH; assay type: biochemical; conditions: n = 2
Procedure: Figure 6 In-house selectivity studies of GD562. The compound was tested at 100, 30, and 10 µM (n = 2). Both SAM and substrate are at their Km values.

in vitro = conditions: PAMPA
[4] = Cytotoxicity by alamarBlue assay in HCT116 cells; conditions: human, GI50, HCT116 cells
Procedure: (§1) Cell viability assay. HCT116 cells were seeded as 5,000 cells/well on 96-well plates in the
(§2) presence of 1x PBS or DC541 at different concentrations for 24, 48, or 72 hours. Cell viability
(§3) was assessed using 0.2 mg/ml resazurin solutions prepared from resazurin sodium salt (Acros
(§4) OrganicsTM, AC418900050) dissolved in sterile 1 x PBS. Then, the cells were incubated with
(§5) 10 µl resazurin solution (10% of cell culture volume) for four hours at 37 °C. The fluorescence
(§6) Cell viability was calculated as 100% × (fluorescence of treated cells – fluorescence of
(§7) background controls) / (fluorescence of 1x PBS controls – fluorescence of background

NTMT1 [5] = target: T5, NTMT1 (Homo sapiens, UniProt Q9BV86); assay: SAHH-coupled fluorescence assay of NTMT1 inhibition; assay type: biochemical; conditions: for IC50: SAHH-coupled fluorescence assay, n = 2, mean ± SD, read-out: IC50; for Expt. ΔGbind ± σ: estimated from the IC50 values in Table 1; for IC50/IC50 (DC541): ratio of NTMT1 IC50 to that of DC541
T5 construct: made in house
T5 sequence (Q9BV86 1-223): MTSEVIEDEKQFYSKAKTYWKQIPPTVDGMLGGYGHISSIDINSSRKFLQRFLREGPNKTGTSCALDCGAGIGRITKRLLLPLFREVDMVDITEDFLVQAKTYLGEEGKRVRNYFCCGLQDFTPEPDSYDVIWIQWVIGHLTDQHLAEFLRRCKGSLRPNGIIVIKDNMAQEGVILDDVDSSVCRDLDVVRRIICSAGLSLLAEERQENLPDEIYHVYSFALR

HCT116 cells = assay: Cytotoxicity by alamarBlue assay in HCT116 cells
Procedure: as §1, §2, §3, §4, §5, §6, §7

[6] = system: NTMT1 knockout HCT116 cells; assay: Cytotoxicity by alamarBlue assay in NTMT1 knockout HCT116 cells; assay type: cell-based, human; conditions: wild-type and NTMT1 knockout HCT116 cells
NTMT1 [7] = target: T5, NTMT1; conditions: cited from earlier work
me3-RCC1 [8] = system: me3-RCC1; set-up: method as in PMID 33738076; conditions: cited from earlier work
me3-SET [9] = system: me3-SET; set-up: method as in PMID 33738076; conditions: even at 300 µM in HCT116 cells; cited from earlier work

Chain of TbPRMT7 (Q582G4 whole entry): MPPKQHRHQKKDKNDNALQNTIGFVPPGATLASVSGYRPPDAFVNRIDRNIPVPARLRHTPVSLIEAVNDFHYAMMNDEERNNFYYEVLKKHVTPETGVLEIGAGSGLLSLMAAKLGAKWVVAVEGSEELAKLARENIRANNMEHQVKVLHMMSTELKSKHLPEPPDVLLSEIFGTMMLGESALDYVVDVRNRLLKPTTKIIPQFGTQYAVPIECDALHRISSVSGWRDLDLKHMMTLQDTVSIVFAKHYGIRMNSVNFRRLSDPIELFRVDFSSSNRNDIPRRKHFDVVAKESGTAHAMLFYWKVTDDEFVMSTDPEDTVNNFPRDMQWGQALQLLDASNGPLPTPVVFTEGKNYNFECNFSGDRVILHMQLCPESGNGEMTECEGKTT
Chain of SAHH (P23526 whole entry, species assumed): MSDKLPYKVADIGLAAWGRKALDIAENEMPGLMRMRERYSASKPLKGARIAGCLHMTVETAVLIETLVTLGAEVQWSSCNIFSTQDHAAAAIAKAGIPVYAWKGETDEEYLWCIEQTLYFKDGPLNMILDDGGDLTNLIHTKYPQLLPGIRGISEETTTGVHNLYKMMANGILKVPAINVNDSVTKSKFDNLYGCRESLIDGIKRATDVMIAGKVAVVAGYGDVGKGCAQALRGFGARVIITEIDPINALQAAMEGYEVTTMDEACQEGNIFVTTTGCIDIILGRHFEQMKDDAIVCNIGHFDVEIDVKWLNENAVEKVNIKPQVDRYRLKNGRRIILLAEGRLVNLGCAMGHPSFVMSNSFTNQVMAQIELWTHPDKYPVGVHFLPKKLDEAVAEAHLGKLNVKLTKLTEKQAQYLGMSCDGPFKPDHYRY
T3 sequence (Q99873 whole entry, species assumed): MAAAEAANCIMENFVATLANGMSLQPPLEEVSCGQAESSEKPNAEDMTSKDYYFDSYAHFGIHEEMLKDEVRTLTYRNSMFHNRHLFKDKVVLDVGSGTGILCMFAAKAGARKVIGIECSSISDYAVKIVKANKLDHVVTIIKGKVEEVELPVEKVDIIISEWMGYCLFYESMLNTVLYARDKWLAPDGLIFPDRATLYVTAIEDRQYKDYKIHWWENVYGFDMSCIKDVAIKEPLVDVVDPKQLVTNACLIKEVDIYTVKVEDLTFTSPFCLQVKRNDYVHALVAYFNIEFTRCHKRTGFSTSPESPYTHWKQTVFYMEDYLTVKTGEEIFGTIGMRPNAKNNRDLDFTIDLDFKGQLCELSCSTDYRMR

Row | Compound | IC50 [1] [µM] | Papp (in vitro) [×10⁻⁶ cm/s] | GI50 [4] [µM] | IC50 (NTMT1 [5]) [nM] | Expt. ΔGbind ± σ (NTMT1 [5]) [kcal/mol] | IC50/IC50 (DC541) (NTMT1 [5]) | other results
1 | NCCCCC(NC(=O)C1CCCN1C(=O)Cc1cccc2ccccc12)C(=O)NCCc1ccccc1 (stereo not shown) [Compound 1d] | ~50 | 0.26 ± 0.06 | > 300 |  |  |  | increase in cellular inhibition activity on me3-RCC1 compared to DC541 (me3-RCC1 [2]): over 2 fold; IC50 (me3-RCC1 [2]; Homo sapiens, HCT-116): ~50 µM; increase of inhibitory activity for the SET protein compared with DC541 (me3-SET [3]): over 6 fold; IC50 (me3-SET [3]; Homo sapiens, HCT-116): ~50 µM; inhibition at 100 µM (G9a): ≤ 50%; inhibition at 100 µM (SETD7): ≤ 50%; inhibition at 100 µM (PRMT1): ≤ 50%; inhibition at 100 µM (NNMT): ≤ 50%; inhibition at 100 µM (TbPRMT7): ≤ 50%; inhibition at 100 µM (SAHH): ≤ 50%
2 | NCCCC[C@H](NC(=O)[C@@H]1CCCN1C(=O)Cc1cccc2ccccc12)C(=O)NCc1ccc(Br)cc1 [Compound 1h] | < 300 | 0.9 ± 0.2 | ~130 | 820 ± 70 | -8.30 ± 0.07 | 2.4 | GI50 (HCT116 cells): 135 ± 23 µM
3 | CN(CCc1ccccc1)C(=O)C(CCCCN)NC(=O)C1CCCN1C(=O)Cc1cccc2ccccc12 (stereo not shown) [Compound 1i] |  |  |  | 1700 ± 70 |  | 5.0 | 
4 | NCCCCC(NC(=O)C1CCCN1C(=O)Cc1cccc2ccccc12)C(=O)NCCc1cccc(-c2ccccc2)c1 (stereo not shown) [Compound 1k] |  | 1.3 ± 0.4 | < 70 |  |  | 2.0 | GI50 (HCT116 cells): 65 ± 7 µM
5 | NCCCCC(NC(=O)C1CCCN1C(=O)Cc1cccc2ccccc12)C(=O)Nc1cccc(Br)c1 (stereo not shown) [Compound 1a] |  |  | < 70 | 170 ± 8 | -9.24 ± 0.04 | 0.50 | GI50 in NTMT1 knockout versus wild-type HCT116 cells [6]: comparable GI50 value
6 | NCCCCC(NC(=O)C1CCCN1C(=O)Cc1cccc2ccccc12)C(=O)Nc1ccc(Br)cc1 (stereo not shown) [Compound 1b] |  |  | < 70 | 180 ± 7 | -9.20 ± 0.03 | 0.53 | 
7 | NCCCC[C@H](NC(=O)[C@@H]1CCCN1C(=O)Cc1ccc(O)cc1)C(=O)N[C@@H](CCCN=C(N)N)C(N)=O [BM30] |  |  |  |  |  |  | selectivity for NTMT1/2 among a panel of 41 methyltransferases (NTMT1 [7]): over 100 fold; IC50 (NTMT1 [7]; previously reported inhibitor): 890 ± 100 nM; IC50 (me3-RCC1 [8]; Figure 1, previously reported inhibitors, read-out: Celluar IC50): > 1000 µM
8 | NCCCCC(NC(=O)C1CCCN1C(=O)Cc1cccc2ccccc12)C(=O)NCCc1ccc(-c2ccccc2)cc1 (stereo not shown) [Compound 1j] |  | 0.9 ± 0.3 |  |  |  | 7.4 | 
9 | NCCCCC(NC(=O)C1CCCN1C(=O)Cc1cccc2ccccc12)C(=O)Nc1ccccc1C(N)=O (stereo not shown) [DC541, reference compound] |  |  |  | 340 ± 30 | -8.82 ± 0.07 | 1.0 | IC50 (me3-RCC1 [8]; HCT116 cells, read-out: cellular IC50 on the me3-RCC1 level): ~100 µM; inhibition of me3-SET level (me3-SET [9]): did not show any inhibition
10 | NCCCCC(NC(=O)C1CCCN1C(=O)Cc1cccc2ccccc12)C(=O)NCC1CCCCC1 (stereo not shown) [Compound 1f] | ~100 | 0.47 ± 0.07 | > 300 | 940 ± 30 | -8.22 ± 0.03 | 2.8 | 
11 | NCCCC[C@H](NC(=O)[C@@H]1CCCN1C(=O)Cc1cccc2ccccc12)C(=O)NCc1cccc(Br)c1 [Compound 1g] | < 300 | 0.6 ± 0.1 | ~130 | 580 ± 30 | -8.51 ± 0.04 | 1.7 | GI50 (HCT116 cells): 128 ± 20 µM
12 | NCCCCC(NC(=O)C1CCCN1C(=O)Cc1cccc2ccccc12)C(=O)NCc1ccccc1 (stereo not shown) [Compound 1c] | < 300 | 0.24 ± 0.06 | > 300 | 910 ± 30 | -8.24 ± 0.03 | 2.7 | 

— paper PMC8874984, “Improved Cell-Potent and Selective Peptidomimetic Inhibitors of Protein N-Terminal Methyltransferase 1” (Molecules, 2022)
